Assay results reported in ChEMBL document CHEMBL6182856, “Novel one-/two-photon excited carbazole/quinolinium photosensitizers manifest nanomolar and hypoxia-resistant tumor photodynamic therapy by accelerating apoptosis, ferroptosis, and autophagy” (Eur J Med Chem, 2025).
Activity calls are given as the source filed them. The rule behind the calls is not given here.

Tests used:
[1] = Photosensitizing ability of the compound in methanol assessed as singlet oxygen production by measuring quantum yield measured upon irradiation by DPBF based assay; type: functional
[2] = Photosensitizing ability of the compound assessed as superoxide radical production measured upon irradiation by DHE probe based assay; type: functional
[3] = Photosensitizing ability of the compound assessed as hydroxyl radical production measured upon irradiation by HPF probe based assay; type: functional
[4] = Phototoxicity against human A549 cells assessed as inhibition of cell growth incubated for 24 hrs measured under normoxia conditions and after one-photon excitation upon irradiation with light at 520 nm, 200 mW/cm2 for 10 mins by MTT assay; type: functional, cell-based; conditions: A549, light or radiation study
[5] = system: A549; assay: Cytotoxicity against human A549 cells assessed as inhibition of cell growth incubated for 24 hrs measured under normoxia conditions by MTT assay; type: functional, cell-based; conditions: A549, 24 h
[6] = system: HT-29; assay: Cytotoxicity against human HT-29 cells assessed as inhibition of cell growth incubated for 24 hrs measured under normoxia conditions by MTT assay; type: functional, cell-based; conditions: HT-29, 24 h
[7] = system: 4T1; assay: Cytotoxicity against mouse 4T1 cells assessed as inhibition of cell growth incubated for 24 hrs measured under normoxia conditions by MTT assay; type: functional, cell-based; conditions: 4T1, 24 h
[8] = Phototoxicity against human HT-29 cells assessed as inhibition of cell growth incubated for 24 hrs measured under normoxia conditions and after one-photon excitation upon irradiation with light at 520 nm, 200 mW/cm2 for 10 mins by MTT assay; type: functional, cell-based; conditions: HT-29, light or radiation study
[9] = Phototoxicity against mouse 4T1 cells assessed as inhibition of cell growth incubated for 24 hrs measured under normoxia conditions and after one-photon excitation upon irradiation with light at 520 nm, 200 mW/cm2 for 10 mins by MTT assay; type: functional, cell-based; conditions: 4T1, light or radiation study
[10] = Phototherapeutic index, ratio of IC50 for cytotoxicity against human A549 cells measured under normoxia conditions to IC50 for phototoxicity against human A549 cells measured under normoxia conditions and after one-photon excitation upon irradiation with light at 520 nm, 200 mW/cm2 for 10 mins; type: functional
[11] = Phototherapeutic index, ratio of IC50 for cytotoxicity against human HT-29 cells measured under normoxia conditions to IC50 for phototoxicity against human HT-29 cells measured under normoxia conditions and after one-photon excitation upon irradiation with light at 520 nm, 200 mW/cm2 for 10 mins; type: functional
[12] = system: 4T1; assay: Phototherapeutic index, ratio of IC50 for cytotoxicity against mouse 4T1 cells measured under normoxia conditions to IC50 for phototoxicity against mouse 4T1 cells measured under normoxia conditions and after one-photon excitation upon irradiation with light at 520 nm, 200 mW/cm2 for 10 mins; type: functional

Compound: CCn1c2ccc(N)cc2c2cc(/C=C/c3cc[n+](C)c4ccccc34)ccc21.[I-]
- Activity [1]: 0.04
- Activity [2]: Active
- Activity [3]: Active
- IC50 [4]: 2.23 µM
- IC50 [5]: 22.4 µM
- IC50 [6]: 19.3 µM
- IC50 [7]: 20.3 µM
- IC50 [8]: 2.77 µM
- IC50 [9]: 3.66 µM
- Ratio IC50 [10]: 10
- Ratio IC50 [11]: 7
- Ratio IC50 [12]: 5

Compound: CCn1c2ccc(/C=C/c3cc[n+](C)c4ccccc34)cc2c2cc([N+](=O)[O-])ccc21.I
- Activity [1]: 0.13
- Activity [2]: Active
- Activity [3]: Active
- IC50 [4]: 4.11 µM
- IC50 [5]: > 100 µM
- IC50 [6]: 59.4 µM
- IC50 [7]: 20.1 µM
- IC50 [8]: 3.55 µM
- IC50 [9]: 4.81 µM
- Ratio IC50 [11]: 16
- Ratio IC50 [12]: 4
